In one test the target is T1, human plasma kallikrein (Homo sapiens, UniProt P03952).
T1 construct: purchased Enzyme Research Laboratories
The experiment in a line: Plasma kallikrein enzyme inhibition assay (chromogenic substrate S-2302), Ki. It is filed as biochemical. Conditions: purified human plasma kallikrein, substrate S-2302, pH 7.5. Here is the method:
(§1) The effectiveness of compounds of the present invention as inhibitors of the coagulation Factors XIa, VIIa, IXa, Xa, XIIa, plasma kallikrein chymotrypsin, trypsin, or thrombin, can be determined using a relevant purified serine protease, respectively, and an appropriate synthetic substrate. The rate of hydrolysis of the chromogenic or fluorogenic substrate by the relevant serine protease was measured both in the absence and presence of compounds of the present invention. […] A decrease in the rate of absorbance or fluorescence change in the presence of inhibitor is indicative of enzyme inhibition. Such methods are known to one skilled in the art. The results of this assay are expressed as the inhibitory constant, Ki.
Plasma kallikrein determinations were made in 0.1 M sodium phosphate buffer at a pH of 7.5 containing 0.1-0.2 M sodium chloride and 0.5% PEG 8000. Determinations were made using purified human plasma kallikrein (Enzyme Research Laboratories) at a final assay concentration of 200 pM and the synthetic substrate S-2302 (H-(D)-Pro-Phe-Arg-pNA; CHROMOGENIX®) at a concentration of 0.00008-0.0004 M.
(§2) The Michaelis constant, Km, for substrate hydrolysis by each protease, was determined at 25° C. or 37° C. in the absence of inhibitor. Values of Ki were determined by allowing the protease to react with the substrate in the presence of the inhibitor. Reactions were allowed to go for periods of 20-180 minutes (depending on the protease) and the velocities (rate of absorbance or fluorescence change versus time) were measured. The following relationships were used to calculate Ki values: (Vmax*S)/(Km+S) (vo−vs)/vs=I/(Ki*(1+S/Km)) for a competitive inhibitor with one binding site; or vs/vo=A+((B−A)/(1+(IC50/(I)^n)); and Ki=IC50/(1+S/Km) for a competitive inhibitor where: […]

For another test, the target named is T2, human Factor XIa (Homo sapiens, UniProt P03951).
T2 construct: purchased Haematologic Technologies
T2 sequence (P03951 388-625 limits assumed): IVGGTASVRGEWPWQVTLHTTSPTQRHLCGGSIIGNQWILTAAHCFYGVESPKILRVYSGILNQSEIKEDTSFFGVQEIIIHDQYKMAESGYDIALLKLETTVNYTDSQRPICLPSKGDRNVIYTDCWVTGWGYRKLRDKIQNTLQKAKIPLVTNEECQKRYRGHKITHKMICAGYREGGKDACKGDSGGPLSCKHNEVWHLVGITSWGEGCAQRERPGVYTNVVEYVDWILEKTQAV
T2 sequence (P03951 19-387 partner limits assumed): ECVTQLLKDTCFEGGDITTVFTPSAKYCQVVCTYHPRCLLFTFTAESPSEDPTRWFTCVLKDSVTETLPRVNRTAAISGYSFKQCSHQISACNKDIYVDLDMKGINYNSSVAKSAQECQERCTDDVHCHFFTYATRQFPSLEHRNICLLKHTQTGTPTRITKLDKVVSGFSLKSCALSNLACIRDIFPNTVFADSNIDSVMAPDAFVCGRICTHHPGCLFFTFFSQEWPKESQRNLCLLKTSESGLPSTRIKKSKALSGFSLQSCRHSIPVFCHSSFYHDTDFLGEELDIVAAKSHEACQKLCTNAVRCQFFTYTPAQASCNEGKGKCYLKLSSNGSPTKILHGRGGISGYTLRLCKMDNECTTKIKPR
The experiment in a line: Factor XIa enzyme inhibition assay (chromogenic substrate S-2366), Ki. Format: biochemical. Conditions: purified human Factor XIa, substrate S-2366, pH 7.4. How it is done:
as §1
Factor XIa determinations were made in 50 mM HEPES buffer at pH 7.4 containing 145 mM NaCl, 5 mM KCl, and 0.1% PEG 8000 (polyethylene glycol; JT Baker or Fisher Scientific). Determinations were made using purified human Factor XIa at a final concentration of 25-200 pM (Haematologic Technologies) and the synthetic substrate S-2366 (pyroGlu-Pro-Arg-pNA; CHROMOGENIX® or AnaSpec) at a concentration of 0.0002-0.001 M.
as §2

By Ki is commonly meant a dissociation constant, usually derived from enzyme kinetics or from competition with a known ligand.

Counter-ions that a name gives are not always drawn.

T1 sequence (P03952 391-638 limits assumed): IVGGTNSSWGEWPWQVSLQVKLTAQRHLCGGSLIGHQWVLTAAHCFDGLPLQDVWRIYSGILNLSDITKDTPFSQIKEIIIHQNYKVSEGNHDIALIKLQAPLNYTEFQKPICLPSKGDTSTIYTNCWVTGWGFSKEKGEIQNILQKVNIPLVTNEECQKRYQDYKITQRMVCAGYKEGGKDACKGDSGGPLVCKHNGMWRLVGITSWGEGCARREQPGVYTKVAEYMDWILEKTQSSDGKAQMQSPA
T1 sequence (P03952 20-390 partner limits assumed): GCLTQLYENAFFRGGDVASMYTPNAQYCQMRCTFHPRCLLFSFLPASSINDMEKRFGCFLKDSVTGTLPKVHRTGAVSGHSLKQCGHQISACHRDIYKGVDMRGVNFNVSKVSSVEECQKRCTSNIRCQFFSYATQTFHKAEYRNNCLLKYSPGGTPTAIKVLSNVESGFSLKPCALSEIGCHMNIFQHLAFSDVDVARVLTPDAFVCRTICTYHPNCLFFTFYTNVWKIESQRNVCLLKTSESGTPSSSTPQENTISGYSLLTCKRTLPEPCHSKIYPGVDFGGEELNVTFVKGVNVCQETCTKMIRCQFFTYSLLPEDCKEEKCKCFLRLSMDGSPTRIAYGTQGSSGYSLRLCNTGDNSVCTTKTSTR

On to `CC(C)(C)OC(=O)N1CCN2c3cccc(c3)[C@@H](n3cnc(-c4cc(Cl)ccc4-n4cc(Cl)nn4)cc3=O)CCCCCNC(=O)[C@@H]2C1` [Example 1, tert-butyl (7S,15S)-15-{4-[5-chloro-2-(4-chloro-1H-1,2,3-triazol-1-yl)phenyl]-6-oxo-1,6-dihydropyrimidin-1-yl}-8-oxo-2,5,9-triazatricyclo[14.3.1.0^2,7]icosa-1(20),16,18-triene-5-carboxylate], for which the Ki amounted to 3.47 µM at human plasma kallikrein and 0.955 µM at human Factor XIa.

For the molecule `O=C1NCCCCC[C@H](n2cnc(-c3cc(Cl)ccc3-n3cc(Cl)nn3)cc2=O)c2cccc(c2)N2CCNC[C@@H]12` [Example 2, (7S,15S)-15-{4-[5-chloro-2-(4-chloro-1H-1,2,3-triazol-1-yl)phenyl]-6-oxo-1,6-dihydropyrimidin-1-yl}-2,5,9-triazatricyclo[14.3.1.0^2,7]icosa-1(20),16,18-trien-8-one hydrochloride], the Ki on human plasma kallikrein came out at 7.29 µM; on human Factor XIa, 0.542 µM.

`COC(=O)N1CCN2c3cccc(c3)[C@@H](n3cnc(-c4cc(Cl)ccc4-n4cc(Cl)nn4)cc3=O)CCCCCNC(=O)[C@@H]2C1` [Example 3, methyl (7S,15S)-15-{4-[5-chloro-2-(4-chloro-1H-1,2,3-triazol-1-yl)phenyl]-6-oxo-1,6-dihydropyrimidin-1-yl}-8-oxo-2,5,9-triazatricyclo[14.3.1.0^2,7]icosa-1(20),16,18-triene-5-carboxylate]: the inhibition constant Ki at human plasma kallikrein came out at 4.11 µM; at human Factor XIa, 0.643 µM.

Regarding `CC(C)(C)OC(=O)N1CC(=O)N2c3cccc(c3)[C@@H](n3cnc(-c4cc(Cl)ccc4-n4cc(Cl)nn4)cc3=O)CCCCCNC(=O)[C@@H]2C1` [Example 4, tert-butyl (7S,15S)-15-{4-[5-chloro-2-(4-chloro-1H-1,2,3-triazol-1-yl)phenyl]-6-oxo-1,6-dihydropyrimidin-1-yl}-3,8-dioxo-2,5,9-triazatricyclo[14.3.1.0^2,7]icosa-1(20),16,18-triene-5-carboxylate], the figures for the Ki at human plasma kallikrein and at human Factor XIa were 3.14 µM and 9.02 µM, respectively.

On to `CC(C)(C)OC(=O)N1CC(=O)N2c3cccc(c3)[C@@H](n3cnc(-c4cc(Cl)ccc4-n4cc(Cl)nn4)cc3=O)CCCCCNC(=O)[C@H]2C1` [Example 5, tert-butyl (7R,15S)-15-{4-[5-chloro-2-(4-chloro-1H-1,2,3-triazol-1-yl)phenyl]-6-oxo-1,6-dihydropyrimidin-1-yl}-3,8-dioxo-2,5,9-triazatricyclo[14.3.1.0^2,7]icosa-1(20),16,18-triene-5-carboxylate], for which the values for the Ki on human plasma kallikrein and on human Factor XIa were 6 µM and 0.276 µM, respectively.

Consider `O=C1NCCCCC[C@H](n2cnc(-c3cc(Cl)ccc3-n3cc(Cl)nn3)cc2=O)c2cccc(c2)N2C(=O)CNC[C@@H]12` [Example 6, (7S,15S)-15-{4-[5-chloro-2-(4-chloro-1H-1,2,3-triazol-1-yl)phenyl]-6-oxo-1,6-dihydropyrimidin-1-yl}-2,5,9-triazatricyclo[14.3.1.0^2,7]icosa-1(20),16,18-triene-3,8-dione hydrochloride], for which the values for the Ki at human plasma kallikrein and on human Factor XIa were 13 µM and 6 µM, respectively.

In the case of `O=C1NCCCCC[C@H](n2cnc(-c3cc(Cl)ccc3-n3cc(Cl)nn3)cc2=O)c2cccc(c2)N2C(=O)CNC[C@H]12` [Example 7, (7R,15S)-15-{4-[5-chloro-2-(4-chloro-1H-1,2,3-triazol-1-yl)phenyl]-6-oxo-1,6-dihydropyrimidin-1-yl}-2,5,9-triazatricyclo[14.3.1.0^2,7]icosa-1(20),16,18-triene-3,8-dione hydrochloride], the inhibitory constant (Ki) on human plasma kallikrein is 4.78 µM; on human Factor XIa, 0.097 µM.

In the case of `CC(C)(C)OC(=O)N1CCN2c3cccc(c3)[C@@H](n3cnc(-c4cc(Cl)ccc4-n4cc(Cl)nn4)cc3=O)CCCCCNC(=O)[C@H]2C1` [Example 8, tert-butyl (7R,15S)-15-{4-[5-chloro-2-(4-chloro-1H-1,2,3-triazol-1-yl)phenyl]-6-oxo-1,6-dihydropyrimidin-1-yl}-8-oxo-2,5,9-triazatricyclo[14.3.1.0^2,7]icosa-1(20),16,18-triene-5-carboxylate], the Ki was found to be 1.09 µM on human plasma kallikrein and 0.021 µM at human Factor XIa.

The values are drawn from patent US10676477B2, “Factor XIa macrocycle inhibitors bearing a non-aromatic P2' group” (BRISTOL-MYERS SQUIBB COMPANY, priority 2015, dated 2020).
